Experiments:
Hepa1-6 cells = assay: Scratch (wound healing) assay; format: cell-based, mouse; conditions: 24 h, medium from activated neutrophils treated with NPs, mean ± s.d., n = 3
Description: Cell migration and invasion assay
To produce cell gaps for cell scratch tests, Hepa1-6/luc cells were injected into culture inserts (IBIDI, Germany).
After 24 hours, the cells were treated with Resting neutrophils, Control, NFTP-NPs, FTP-NPs, and NEi groups.
Cell migration was monitored during the overnight culture of the cells. […]
Matrigel tube formation assay
Murine C166 endothelial cells (3×10^4cells/well) were placed on 96-well plates coated with Matrigel (356231,
Corning, New York, USA) and incubated with various treatments. […]
In vitro permeability assays and trans-endothelial invasion assays
For in vitro permeability assays, C166 cells were treated with Resting neutrophils, Control, NFTP-NPs, FTP-
NPs, and NEi groups for 48 h to form an endothelial monolayer, and then Evans Blue (PHYGENE, China) was
added to the upper layer of the transwell filters (0.4 μm, Corning). […]
All the experiments were performed thrice. […]

[1] = test system: mouse red blood cells (RBCs); assay: Hemolysis assay; format: cell-based; conditions: 2% RBC suspension in PBS, 1 h, 37 °C, absorbance at 541 nm, triplicate
Description: Hemolysis Assay of FTP-NPs
To assess the hemolytic activity of FTP-NPs, red blood cells (RBCs) were harvested from C57BL/6 mice (aged 6–8 weeks, female). The mice were euthanized by cervical dislocation, and blood was collected via cardiac puncture into heparinized tubes. Blood was then immediately diluted with an equal volume of phosphate-buffered saline (PBS) and centrifuged at 1500 g for 10 minutes to isolate the RBCs. The supernatant was discarded, and the RBC pellet was washed three times with PBS to remove any residual plasma and other cellular components. The final RBC suspension was adjusted to a 2% hematocrit using PBS. FTP-NPs were synthesized as described previously. Briefly, FTP-NPs were prepared by self-assembly of peptidic […]
concentration was tested in triplicate. For the hemolysis assay, 200 μL of the 2% RBC suspension was incubated with 200 μL of FTP-NPs at the specified concentrations in a 96-well plate for 1 hour at 37°C under gentle shaking. […] The hemoglobin released into the supernatant was quantified by measuring the absorbance at 541 nm (A541) using a microplate reader. The percentage of hemolysis was calculated using the following formula: Hemolysis %= (Asample−ANC)/ (APC−ANC) *100%. Where Asample is the absorbance of the sample, ANC is the absorbance of the negative control, and APC is the absorbance of the positive control. […]

Substance: PpIX-GFFVLK-EAIPMSIPPEVK [FTP-NPs]
- wound healing rate (Hepa1-6 cells): 5.2% ± 1.8%
- maximum observed hemolysis rate [1]: approximately 0.9%

— paper PMC12767106, “In Situ Assembly of Transformable Monopeptide on Activated Neutrophils Attenuates NETs‐Induced Hepatocellular Carcinoma Metastasis by Disrupting NE Nuclear Translocation” (Advanced Science, 2025)
